From patent US11420944B2, “Voltage-dependent t-type calcium channel blocker” (Nippon Chemiphar Co., Ltd., priority 2016, dated 2022)
Read-outs that look alike come from different tables or passages of the source.

Tests used:
[1] = target: T1, human Cav3.2 channels (Homo sapiens, UniProt O95180); assay: Electrophysiological evaluation, whole-cell patch-clamp with automatic patch-clamp system; type: cell-based; conditions: for inhibition at 0.3 µM: holding potential −80 mV, read-out: Cav3.2 channel current inhibition ratio at 0.3 μM of test compound (holding potential −80 mV)
T1 construct: expressed in transfected cells; host or cells: HEK293 cells (ATCC No. CRL-1573), plasmid pcDNA3.1(+)
Procedure: Electrophysiological Evaluation
Stable cell line expressing human Cav3.2 channels, which had been produced by Test method (1) of Example 140, was seeded in a 10-cm dish using DMEM medium containing 10% FBS, and the cells were cultured for 24 hours or longer under the conditions of 37° C. and 5% CO2. The cells were detached using Accutase and were used after being suspended in ice-cold extracellular solution. The Cav3.2 channel current was measured by the Whole-cell patch-clamp method using an automatic patch-clamp system (Port-a-Patch; Nanion Technologies GmbH, EPC-10; HEKA Elektronik GmbH, Patchmaster; HEKA Elektronik GmbH) and buffers described below. Measurement of the Cav3.2 channel current was carried out at room temperature, and the measurement conditions were set as follows: holding potential: −80 mV, depolarization potential: −20 mV, depolarization time: 100 msec, and depolarization frequency: 10 sec. The Cav3.2 channel current was defined as the peak value of the inward current observed when depolarization occurred at −20 mV.
For a test compound, a DMSO solution was diluted 1,000 times with extracellular solution, and thus a solution having an intended concentration was produced. The test compound was applied using an extracellular perfusion system (Nanion Technologies GmbH) until the Cav3.2 channel current was stabilized, and five concentrations at the maximum from the low-concentration side were cumulatively applied. The inhibition ratio of the test compound was calculated from the current value immediately before the application of the test compound and the change rate of the Cav3.2 channel current after the application of the test compound (conditions for a holding potential of −80 mV: test compound concentration of 0.3 μM, conditions for a holding potential of −100 mV: test compound concentration of 3 μM).
Extracellular solution: 135 mM NaCl, 4 mM KCl, 1 mM MgCl2, 5 mM CaCl2, 5 mM D-Glucose, and 10 mM HEPES, pH 7.4
Internal solution for electrode: 10 mM NaCl, 10 mM HEPES, 50 mM CsCl, 60 mM CsF, and 20 mM EGTA, pH 7.2

[2] = target: T1, human Cav3.2 channels; assay: Intracellular calcium concentration measurement (Fluo-4 AM) in stable cells expressing human Cav3.2 channels, buffer A / buffer B; type: cell-based
How it was run: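 State-dependent Cav3.2 inhibition compared in two buffers differing in potassium equilibrium potential (−92 vs −110 mV). Stable HEK293 line, Fluo-4 dye; compound 15 min, room temperature, dark, then KCl addition (83.8 or 91.8 mM) triggers calcium influx read 10 s; IC50 from peak increment over baseline.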

[3] = target: T2, CYP3A4 (Homo sapiens, UniProt P08684); assay: Evaluation of CYP3A4 activity inhibitory action; type: in vitro ADME; conditions: Human CYP3A4BR EasyCYP Bactosomes, 7-Benzyloxy-4-(trifluoromethyl)-coumarin
T2 construct: purchased Cypex, Ltd; host or cells: E. coli membranes (Bactosomes)
Procedure: Evaluation of CYP3A4 Activity Inhibitory Action
To a 50 mM potassium phosphate buffer solution (pH 7.4), 5 nM Human CYP3A4BR EasyCYP Bactosomes (Cypex, Ltd.), 50 μM 7-Benzyloxy-4-(trifluoromethyl)-coumarin, cofactor mix (0.0081 mM β-NADP^+, 0.4 mM G-6-P, 0.4 mM MgCl2, and 0.2 U/mL G-6-P DH(Y)), and 0.01% Pluronic F-127 were added, and the mixture was incubated for 45 minutes at 37° C. The reaction was initiated by adding the cofactor mix. After the incubation, 0.5 M Tris base/acetonitrile (20:80) was added thereto as a reaction terminating liquid, and the resulting mixture was stirred. Subsequently, the fluorescence intensity (excitation: 405 nm, emission: 535 nm) was measured. The reaction was carried out in duplicate. The results are presented as the inhibition rate at 10 μM of the test compound.

[4] = Table 1, buffer A, equilibrium potential of potassium −92 mV, read-out: Inhibitory action of buffer A (inactivated state)
[5] = Table 1, buffer B, equilibrium potential of potassium −110 mV, read-out: Inhibitory action of buffer B (resting state or closed state)
[6] = Tables 2 to 6, buffer A, equilibrium potential of potassium −92 mV, read-out: Inhibitory action of buffer A (inactivated state)

T2 sequence (P08684 whole entry): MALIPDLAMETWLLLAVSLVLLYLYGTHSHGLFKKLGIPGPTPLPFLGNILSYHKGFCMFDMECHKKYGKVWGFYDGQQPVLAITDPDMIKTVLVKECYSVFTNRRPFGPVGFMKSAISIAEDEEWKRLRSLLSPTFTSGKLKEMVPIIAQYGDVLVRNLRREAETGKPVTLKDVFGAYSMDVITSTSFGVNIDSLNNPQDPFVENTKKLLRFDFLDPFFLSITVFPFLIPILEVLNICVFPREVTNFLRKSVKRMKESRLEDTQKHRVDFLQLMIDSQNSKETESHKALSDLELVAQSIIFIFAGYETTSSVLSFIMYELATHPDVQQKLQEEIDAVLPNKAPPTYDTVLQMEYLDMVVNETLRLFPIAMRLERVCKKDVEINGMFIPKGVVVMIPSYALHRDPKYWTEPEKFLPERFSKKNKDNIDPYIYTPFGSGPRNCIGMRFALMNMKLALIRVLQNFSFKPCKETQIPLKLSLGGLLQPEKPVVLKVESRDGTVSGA
T1 sequence (O95180 whole entry): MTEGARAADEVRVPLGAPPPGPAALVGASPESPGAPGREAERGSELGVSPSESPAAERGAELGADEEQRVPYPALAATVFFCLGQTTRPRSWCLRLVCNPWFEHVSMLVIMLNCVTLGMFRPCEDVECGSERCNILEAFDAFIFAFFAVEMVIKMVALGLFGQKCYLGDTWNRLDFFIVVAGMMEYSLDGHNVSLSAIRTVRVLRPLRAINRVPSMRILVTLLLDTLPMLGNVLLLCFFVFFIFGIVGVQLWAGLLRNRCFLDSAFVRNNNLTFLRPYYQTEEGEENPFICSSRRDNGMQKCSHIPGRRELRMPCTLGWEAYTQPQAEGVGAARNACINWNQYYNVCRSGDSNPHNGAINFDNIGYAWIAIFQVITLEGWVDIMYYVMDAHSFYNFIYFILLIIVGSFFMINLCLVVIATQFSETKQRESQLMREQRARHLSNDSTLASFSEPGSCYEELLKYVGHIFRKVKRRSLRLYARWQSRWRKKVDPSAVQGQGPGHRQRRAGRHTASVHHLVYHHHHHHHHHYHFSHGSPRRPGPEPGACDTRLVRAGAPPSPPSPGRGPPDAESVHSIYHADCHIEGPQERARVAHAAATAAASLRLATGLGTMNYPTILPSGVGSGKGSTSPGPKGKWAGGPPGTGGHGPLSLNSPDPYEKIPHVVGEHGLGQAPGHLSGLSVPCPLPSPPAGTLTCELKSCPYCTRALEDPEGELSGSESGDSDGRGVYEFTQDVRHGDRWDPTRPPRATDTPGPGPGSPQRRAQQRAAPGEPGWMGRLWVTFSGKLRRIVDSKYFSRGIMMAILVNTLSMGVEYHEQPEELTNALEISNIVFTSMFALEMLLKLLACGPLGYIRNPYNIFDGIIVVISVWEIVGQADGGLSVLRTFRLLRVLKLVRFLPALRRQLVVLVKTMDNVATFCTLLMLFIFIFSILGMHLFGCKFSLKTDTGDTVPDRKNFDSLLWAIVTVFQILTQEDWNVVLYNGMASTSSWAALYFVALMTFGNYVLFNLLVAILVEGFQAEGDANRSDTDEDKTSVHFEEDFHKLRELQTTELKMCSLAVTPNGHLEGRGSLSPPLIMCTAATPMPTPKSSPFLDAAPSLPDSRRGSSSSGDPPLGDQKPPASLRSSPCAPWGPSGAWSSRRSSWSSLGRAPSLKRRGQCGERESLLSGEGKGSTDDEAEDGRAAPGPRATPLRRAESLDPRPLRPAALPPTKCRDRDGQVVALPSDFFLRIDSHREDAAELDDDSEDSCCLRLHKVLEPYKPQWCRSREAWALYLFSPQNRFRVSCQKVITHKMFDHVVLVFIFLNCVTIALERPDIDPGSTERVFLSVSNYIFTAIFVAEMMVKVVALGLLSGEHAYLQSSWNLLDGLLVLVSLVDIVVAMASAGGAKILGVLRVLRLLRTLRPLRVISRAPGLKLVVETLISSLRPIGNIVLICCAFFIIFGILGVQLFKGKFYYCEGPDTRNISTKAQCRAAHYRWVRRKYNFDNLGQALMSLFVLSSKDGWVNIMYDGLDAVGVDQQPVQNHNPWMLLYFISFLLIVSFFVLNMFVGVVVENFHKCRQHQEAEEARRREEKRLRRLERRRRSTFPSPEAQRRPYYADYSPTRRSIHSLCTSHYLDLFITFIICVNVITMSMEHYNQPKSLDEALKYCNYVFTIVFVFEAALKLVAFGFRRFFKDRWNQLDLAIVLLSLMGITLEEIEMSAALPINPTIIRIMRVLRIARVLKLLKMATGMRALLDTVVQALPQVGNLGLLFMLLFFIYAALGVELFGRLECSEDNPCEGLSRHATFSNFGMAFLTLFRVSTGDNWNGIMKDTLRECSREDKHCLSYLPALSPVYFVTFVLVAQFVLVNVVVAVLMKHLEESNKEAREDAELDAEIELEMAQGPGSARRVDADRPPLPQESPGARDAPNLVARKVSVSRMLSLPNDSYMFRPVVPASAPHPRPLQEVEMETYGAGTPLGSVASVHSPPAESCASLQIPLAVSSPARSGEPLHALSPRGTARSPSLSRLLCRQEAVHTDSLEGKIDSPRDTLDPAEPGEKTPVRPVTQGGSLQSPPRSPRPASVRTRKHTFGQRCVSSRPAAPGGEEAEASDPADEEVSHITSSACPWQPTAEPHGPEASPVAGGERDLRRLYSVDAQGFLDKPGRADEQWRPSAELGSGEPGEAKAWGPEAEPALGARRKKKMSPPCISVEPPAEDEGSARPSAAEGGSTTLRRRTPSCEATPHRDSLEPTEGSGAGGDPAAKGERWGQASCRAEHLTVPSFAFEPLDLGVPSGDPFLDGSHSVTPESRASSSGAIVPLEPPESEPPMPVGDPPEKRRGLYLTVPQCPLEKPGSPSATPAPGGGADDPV

## C[C@@H](NC(=O)C1CC1c1nc2ccccc2n1C)c1ccc(OCC(F)(F)F)s1 (single isomer, unassigned) [Example 4A]
[1]
  inhibition at 0.3 µM: 58%
[2]; [4]
  IC50: ≤ 100 nM
[2]; [5]
  IC50: > 10000 nM
[3]
  CYP3A4 activity inhibition ratio at 10 μM of test compound: 39.6%

## C[C@@H](NC(=O)C1CC1c1nc2ccccc2[nH]1)c1ccc(C(F)(F)F)s1 (single isomer, unassigned) [Example 5A]
[1]
  inhibition at 0.3 µM: 59%
[2]; [4]
  IC50: 100 to 1000 nM
[2]; [5]
  IC50: 100 to 1000 nM
[3]
  CYP3A4 activity inhibition ratio at 10 μM of test compound: 13.0%

## C[C@@H](NC(=O)C1CC1c1ccc2cnn(C)c2c1)c1ccc(OCC(F)(F)F)s1 (single isomer, unassigned) [Example 22A]
[1]
  inhibition at 0.3 µM: 81%
[2]; [6]
  IC50: 100 to 1000 nM
[3]
  CYP3A4 activity inhibition ratio at 10 μM of test compound: 12.2%

## C[C@@H](NC(=O)C1CC1c1nc2ccccc2[nH]1)c1ccc(C(=O)O)s1 (single isomer, unassigned) [Example 26]
[1]
  inhibition at 0.3 µM: 19%
[2]; [6]
  IC50: 100 to 1000 nM
[3]
  CYP3A4 activity inhibition ratio at 10 μM of test compound: 11.3%

## C[C@@H](NC(=O)C1CC1c1nc2cc(Cl)ccc2[nH]1)c1cnc(OCC(F)(F)F)s1 (single isomer, unassigned) [Example 64A]
[1]
  inhibition at 0.3 µM: 52%
[2]; [6]
  IC50: ≤ 100 nM
[3]
  CYP3A4 activity inhibition ratio at 10 μM of test compound: 4.4%

## C[C@@H](NC(=O)C1CC1c1nc2ccccc2[nH]1)c1ccc(C(=O)N2CCCCC2)s1 (stereo in doubt) [Example 61, Trans-2-(1H-benzo[d]imidazol-2-yl)-N—((R)-1-(5-(piperidine-1-carbonyl)thiophen-2-yl)ethyl)cyclopropane-1-carboxamide]
[1]
  inhibition at 0.3 µM: 53%
[2]; [6]
  IC50: 100 to 1000 nM
[3]
  CYP3A4 activity inhibition ratio at 10 μM of test compound: 4.5%

## C[C@@H](NC(=O)[C@@H]1CCN(CC(=O)NC(C)(C)C)C1)c1ccc(OCC(F)(F)F)s1.Cl [Example 15, (R)-1-(2-(tert-butylamino)-2-oxoethyl)-N—((R)-1-(5-(2,2,2-trifluoroethoxy)thiophen-2-yl)ethyl)pyrrolidine-3-carboxamide hydrochloride]
[1]
  inhibition at 0.3 µM: 33%
[2]; [4]
  IC50: 100 to 1000 nM
[2]; [5]
  IC50: 1000 to 10000 nM
[3]
  CYP3A4 activity inhibition ratio at 10 μM of test compound: 21.9%

## C[C@@H](NC(=O)[C@@H]1CCN(CC(=O)NC23CC4CC(CC(C4)C2)C3)C1)c1ccc(OCC(F)(F)F)s1 [Example 36, (R)-1-(2-(adamantan-1-ylamino)-2-oxoethyl)-N—((R)-1-(5-(2,2,2-trifluoroethoxy)thiophen-2-yl)ethyl)pyrrolidine-3-carboxamide]
[1]
  inhibition at 0.3 µM: 94%
[2]; [6]
  IC50: ≤ 100 nM
[3]
  CYP3A4 activity inhibition ratio at 10 μM of test compound: 81.0%

## C[C@@H](NC(=O)[C@@H]1CCN(CC(=O)Nc2cc(Cl)cc(Cl)c2)C1)c1ccc(OCC(F)(F)F)s1 [Example 42, (R)-1-(2-((3,5-dichlorophenyl)amino)-2-oxoethyl)-N—((R)-1-(5-(2,2,2-trifluoroethoxy)thiophen-2-yl)ethyl)pyrrolidine-3-carboxamide]
[1]
  inhibition at 0.3 µM: 87%
[2]; [6]
  IC50: ≤ 100 nM
[3]
  CYP3A4 activity inhibition ratio at 10 μM of test compound: 77.9%

## C[C@@H](NC(=O)[C@@H]1CCN(CC(=O)C(C)(C)C)C1)c1ccc(OCC(F)(F)F)s1 [Example 43, (R)-1-(3,3-dimethyl-2-oxobutyl)-N—((R)-1-(5-(2,2,2-trifluoroethoxy)thiophen-2-yl)ethyl)pyrrolidine-3-carboxamide]
[1]
  inhibition at 0.3 µM: 32%
[2]; [6]
  IC50: 100 to 1000 nM
[3]
  CYP3A4 activity inhibition ratio at 10 μM of test compound: 23.6%

## C[C@@H](NC(=O)[C@H]1C[C@@H]1c1nc2ccccc2[nH]1)c1ccc(C(=O)N2CCC(F)(F)C2)s1 [Example 60, Trans-2-(1H-benzo[d]imidazol-2-yl)-N—((R)-1-(5-(3,3-difluoropyrrolidine-1-carbonyl)thiophen-2-yl)ethyl)cyclopropane-1-carboxamide]
[1]
  inhibition at 0.3 µM: 48%
[2]; [6]
  IC50: 100 to 1000 nM
[3]
  CYP3A4 activity inhibition ratio at 10 μM of test compound: −1.2%

## C[C@@H](NC(=O)[C@H]1C[C@@H]1c1nc2ccccc2[nH]1)c1cc2cc(F)ccc2[nH]1 [Example 63, (1S,2S)-2-(1H-benzo[d]imidazol-2-yl)-N—((R)-1-(5-fluoro-1H-indol-2-yl)ethyl)cyclopropane-1-carboxamide]
[1]
  inhibition at 0.3 µM: 91%
[2]; [6]
  IC50: ≤ 100 nM
[3]
  CYP3A4 activity inhibition ratio at 10 μM of test compound: 45.7%

## C[C@@H](NC(=O)[C@H]1C[C@@H]1c1nc2ccccc2[nH]1)c1cc2cc(F)c(F)cc2o1 [Example 91, (1S,2S)-2-(1H-benzo[d]imidazol-2-yl)-N—((R)-1-(5,6-difluorobenzofuran-2-yl)ethyl)cyclopropane-1-carboxamide]
[1]
  inhibition at 0.3 µM: 72%
[2]; [6]
  IC50: ≤ 100 nM
[3]
  CYP3A4 activity inhibition ratio at 10 μM of test compound: 20.1%

## C[C@@H](NC(=O)[C@H]1C[C@@H]1c1nc2ccccc2[nH]1)c1cc2c(F)cc(F)cc2o1 [Example 92, (1S,2S)-2-(1H-benzo[d]imidazol-2-yl)-N—((R)-1-(4,6-difluorobenzofuran-2-yl)ethyl)cyclopropane-1-carboxamide]
[1]
  inhibition at 0.3 µM: 74%
[2]; [6]
  IC50: ≤ 100 nM
[3]
  CYP3A4 activity inhibition ratio at 10 μM of test compound: 23.6%

## C[C@@H](NC(=O)[C@H]1C[C@@H]1c1nc2ccccc2[nH]1)c1cc2ccc(F)cc2o1 [Example 100, (1S,2S)-2-(1H-benzo[d]imidazol-2-yl)-N—((R)-1-(6-fluorobenzofuran-2-yl)ethyl)cyclopropane-1-carboxamide]
[1]
  inhibition at 0.3 µM: 90%
[1]; 3 μM, holding potential −100 mV
  Cav3.2 channel current inhibition ratio at 3 μM of test compound (holding potential −100 mV): 52%
[2]; [6]
  IC50: ≤ 100 nM
[3]
  CYP3A4 activity inhibition ratio at 10 μM of test compound: 27.9%

## C[C@@H](NC(=O)[C@H]1C[C@@H]1c1nc2ccccc2[nH]1)c1nc2cc(F)ccc2o1 [Example 105, (1S,2S)-2-(1H-benzo[d]imidazol-2-yl)-N—((R)-1-(5-fluorobenzo[d]oxazol-2-yl)ethyl)cyclopropane-1-carboxamide]
[1]
  inhibition at 0.3 µM: 58%
[2]; [6]
  IC50: 100 to 1000 nM
[3]
  CYP3A4 activity inhibition ratio at 10 μM of test compound: 21.2%

## C[C@@H](NC(=O)[C@H]1C[C@@H]1c1nc2ccccc2[nH]1)c1nc2ccc(F)cc2o1 [Example 114, (1S,2S)-2-(1H-benzo[d]imidazol-2-yl)-N—((R)-1-(6-fluorobenzo[d]oxazol-2-yl)ethyl)cyclopropane-1-carboxamide]
[1]
  inhibition at 0.3 µM: 32%
[2]; [6]
  IC50: 100 to 1000 nM
[3]
  CYP3A4 activity inhibition ratio at 10 μM of test compound: 30.0%
